The source made the active and inactive calls.
What was measured:
Cysteine protease ATG4B = Cysteine protease ATG4B (Homo sapiens, UniProt Q9Y4P1); format: functional;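 further: Fluorescence-based dose-response confirmation assay measuring inhibition of ATG4B activity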
[1] = biological target: T1, Replicative DNA helicase DnaB (Mycobacterium tuberculosis, UniProt P9WMR3); assay: DnaB intein splicing inhibitors, dose response, biochemical, cell-free fluorescence (AID 449749); format: functional
T1 sequence (P9WMR3 whole entry): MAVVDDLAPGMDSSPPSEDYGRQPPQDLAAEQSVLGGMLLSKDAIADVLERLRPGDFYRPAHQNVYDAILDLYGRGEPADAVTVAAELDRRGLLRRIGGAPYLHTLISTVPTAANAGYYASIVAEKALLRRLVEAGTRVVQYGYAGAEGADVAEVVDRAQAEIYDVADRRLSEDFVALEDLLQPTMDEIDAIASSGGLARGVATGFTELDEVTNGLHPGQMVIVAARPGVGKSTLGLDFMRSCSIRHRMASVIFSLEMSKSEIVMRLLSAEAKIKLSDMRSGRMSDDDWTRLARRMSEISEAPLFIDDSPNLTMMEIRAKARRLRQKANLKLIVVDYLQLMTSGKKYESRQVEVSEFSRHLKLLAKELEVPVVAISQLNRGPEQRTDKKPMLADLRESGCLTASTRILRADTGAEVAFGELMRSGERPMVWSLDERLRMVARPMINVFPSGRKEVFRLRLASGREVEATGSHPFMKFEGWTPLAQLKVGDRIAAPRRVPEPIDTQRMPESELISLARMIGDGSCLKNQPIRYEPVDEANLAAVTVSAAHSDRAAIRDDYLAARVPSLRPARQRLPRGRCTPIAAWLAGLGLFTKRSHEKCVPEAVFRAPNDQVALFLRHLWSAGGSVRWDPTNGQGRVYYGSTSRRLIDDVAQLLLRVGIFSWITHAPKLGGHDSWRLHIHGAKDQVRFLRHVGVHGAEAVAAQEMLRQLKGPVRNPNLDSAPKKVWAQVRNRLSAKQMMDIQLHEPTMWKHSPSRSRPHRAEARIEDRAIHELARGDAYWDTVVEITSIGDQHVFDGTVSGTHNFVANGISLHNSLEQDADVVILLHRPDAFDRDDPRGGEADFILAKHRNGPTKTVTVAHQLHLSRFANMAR

Phospholipase A2 = Phospholipase A2 (Homo sapiens, UniProt P04054); format: functional;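 further: confirmatory dose-response counterscreen on phospholipase A2, testing hits that came from an ultra-high-throughput screen for ATG4B inhibitors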
Protein RecA = biological target: T2, Protein RecA (Mycobacterium tuberculosis, UniProt P9WHJ3); assay: Fluorescence Cell-Free Homogeneous Dose Retest to Identify Inhibitors of RecA-Intein Splicing Activity. [Related pubchem assays (depositor defined):AID2097, AID2223, AID489010, AID492950]; format: functional
T2 sequence (P9WHJ3 whole entry): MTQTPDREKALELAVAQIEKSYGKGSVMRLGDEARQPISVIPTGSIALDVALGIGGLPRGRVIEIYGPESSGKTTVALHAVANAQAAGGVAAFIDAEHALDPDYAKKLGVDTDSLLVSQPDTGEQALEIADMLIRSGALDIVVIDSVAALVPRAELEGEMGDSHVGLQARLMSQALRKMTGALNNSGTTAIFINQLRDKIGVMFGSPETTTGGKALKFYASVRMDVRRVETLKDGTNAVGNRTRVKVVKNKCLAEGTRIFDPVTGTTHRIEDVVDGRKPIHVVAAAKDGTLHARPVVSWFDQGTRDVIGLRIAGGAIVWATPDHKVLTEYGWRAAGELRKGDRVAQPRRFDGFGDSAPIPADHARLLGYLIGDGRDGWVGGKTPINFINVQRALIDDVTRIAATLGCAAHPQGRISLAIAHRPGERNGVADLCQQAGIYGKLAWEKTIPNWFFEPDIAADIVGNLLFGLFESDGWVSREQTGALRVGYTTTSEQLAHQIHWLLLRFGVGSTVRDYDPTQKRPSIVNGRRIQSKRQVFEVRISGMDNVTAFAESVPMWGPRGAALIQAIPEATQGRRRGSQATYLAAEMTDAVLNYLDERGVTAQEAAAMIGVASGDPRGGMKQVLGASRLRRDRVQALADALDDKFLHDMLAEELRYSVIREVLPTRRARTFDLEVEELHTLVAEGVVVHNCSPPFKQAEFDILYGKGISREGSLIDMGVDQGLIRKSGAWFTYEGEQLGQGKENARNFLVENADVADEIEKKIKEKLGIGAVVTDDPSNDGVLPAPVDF

Genome polyprotein = Genome polyprotein (dengue virus type 2, UniProt P29990); assay: flavivirus cap methylation enzyme inhibition – biochemical, confirmation dose response, primary screen (AID 588689); format: functional
[2] = biological target: DNA (cytosine-5)-methyltransferase 1 (Homo sapiens, UniProt P26358); assay: inhibition of DNA methylation by DNMT1 – biochemical, fluorescent molecular beacon, confirmation (AID 602386); format: functional
[3] = biological target: RAC-gamma serine/threonine-protein kinase (Homo sapiens, UniProt Q9Y243); format: functional
[4] = biological target: Serine/threonine-protein kinase D2 (Homo sapiens, UniProt Q9BZL6); format: functional;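 further: measured against PRKD2 as one member of a kinome-wide kinase profiling panel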
[5] = biological target: Serine/threonine-protein kinase pim-1 (Homo sapiens, UniProt P11309); format: functional
[6] = biological target: Serine/threonine-protein kinase PAK 1 (Homo sapiens, UniProt Q13153); format: functional
[7] = biological target: Mitogen-activated protein kinase 9 (Homo sapiens, UniProt P45984); format: functional;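 further: value from a kinome panel profiling assay, MAPK9 panel entry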
LIM domain kinase 1 = LIM domain kinase 1 (Homo sapiens, UniProt P53667); assay: Navigating the Kinome. Panel member name: LIMK1; format: functional
[8] = biological target: MAP kinase-activated protein kinase 3 (Homo sapiens, UniProt Q16644); format: functional;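 further: value comes from a kinome-wide profiling panel in which MAPKAPK3 is one of the panel members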
[9] = biological target: Cyclin-dependent kinase 5 (Homo sapiens, UniProt Q00535); format: functional;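 further: CDK5 measured as one member of a kinase profiling panel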
[10] = biological target: Interleukin-1 receptor-associated kinase 4 (Homo sapiens, UniProt Q9NWZ3); format: functional
[11] = biological target: Rho-associated protein kinase 1 (Homo sapiens, UniProt Q13464); format: functional;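 further: measured within a broad kinome-wide panel profiling many kinases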
[12] = biological target: Cyclin-dependent kinase 1 (Homo sapiens, UniProt P06493); format: functional;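 further: Kinome-wide panel profiling, with the target listed as panel member CDC2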
[13] = biological target: T3, Serine/threonine-protein kinase Nek2 (Homo sapiens, UniProt P51955); format: functional
T3 sequence (P51955 whole entry): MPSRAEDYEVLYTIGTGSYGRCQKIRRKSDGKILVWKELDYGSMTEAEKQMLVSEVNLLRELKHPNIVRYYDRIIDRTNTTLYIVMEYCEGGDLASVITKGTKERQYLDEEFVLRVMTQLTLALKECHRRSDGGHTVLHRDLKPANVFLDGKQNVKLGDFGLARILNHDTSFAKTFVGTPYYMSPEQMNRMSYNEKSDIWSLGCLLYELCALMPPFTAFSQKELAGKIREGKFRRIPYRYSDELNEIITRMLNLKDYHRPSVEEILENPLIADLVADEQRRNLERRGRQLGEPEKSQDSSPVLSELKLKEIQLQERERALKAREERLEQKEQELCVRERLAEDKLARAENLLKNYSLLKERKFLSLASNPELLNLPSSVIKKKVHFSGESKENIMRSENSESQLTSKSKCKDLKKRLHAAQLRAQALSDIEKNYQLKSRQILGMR

[14] = biological target: Serine/threonine-protein kinase MRCK alpha (Homo sapiens, UniProt Q5VT25); format: functional
[15] = biological target: Dual specificity tyrosine-phosphorylation-regulated kinase 1A (Homo sapiens, UniProt Q13627); format: functional;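 further: measured against DYRK1A as one member of a broad kinome profiling panel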
[16] = biological target: Serine/threonine-protein phosphatase PP1-alpha catalytic subunit (Homo sapiens, UniProt P62136); assay: inhibition of protein phosphatase 1 activity – biochemical, fluorescence, dose response (AID 2403);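 further: phosphatase turnover of OMFP into fluorescent 3-O-methylfluorescein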
[17] = biological target: Serine/threonine-protein phosphatase (Homo sapiens, UniProt Q9BPW0); assay: Counterscreen for inhibitors of PP1: fluorescence-based biochemical high throughput dose response assay to identify inhibitors of Protein Phosphatase 5 (PP5). [Related pubchem assays: 2034 (Summary (PP5 inhibitors)), 1987 (PP5 inhibitors in singlate), 2235 (PP1 inhibitors in singlate)]
X-box-binding protein 1 = X-box-binding protein 1 (Homo sapiens, UniProt P17861); format: functional, Cricetulus griseus;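 further: confirmatory dose-response counter-screen serving a CHOP assay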
[18] = biological target: 26S proteasome non-ATPase regulatory subunit 14 (Homo sapiens, UniProt O00487); assay: inhibition of proteasome subunit RPN11 – biochemical, fluorescence polarization, uHTS hits, confirmation (AID 602368); format: functional
[19] = biological target: 72 kDa type IV collagenase (Homo sapiens, UniProt P08253); assay: Dose Response validation of uHTS RPN11 inhibitor hits using a MMP-2 Fluorescence assay.; format: functional
Prothrombin = Prothrombin (Bos taurus, UniProt P00735); assay: thrombin protease inhibitors – biochemical, fluorescence polarization, uHTS hits, dose response (AID 602369); format: functional
[20] = biological target: Ribosomal protein S6 kinase alpha-3 (Homo sapiens, UniProt P51812); format: functional;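 further: measured within a kinome-wide profiling panel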
[21] = biological target: Serine/threonine-protein kinase PLK3 (Homo sapiens, UniProt Q9H4B4); format: functional
[22] = biological target: MAP kinase-activated protein kinase 2 (Homo sapiens, UniProt P49137); format: functional;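 further: measured as one member of a kinome-wide kinase panel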
[23] = biological target: Casein kinase II subunit alpha (Homo sapiens, UniProt P68400); format: functional
[24] = biological target: Intestinal-type alkaline phosphatase (Mus musculus, UniProt P24822); assay: PubChem AID 488785; format: functional
[25] = biological target: T4, Alkaline phosphatase, tissue-nonspecific isozyme (Homo sapiens, UniProt P05186); assay: TNAP enzyme inhibition by screening hits, dose response, selectivity assay for mouse IAP inhibitor project, biochemical, human TNAP, uHTS hits (AID 488906); format: functional
T4 sequence (P05186 whole entry): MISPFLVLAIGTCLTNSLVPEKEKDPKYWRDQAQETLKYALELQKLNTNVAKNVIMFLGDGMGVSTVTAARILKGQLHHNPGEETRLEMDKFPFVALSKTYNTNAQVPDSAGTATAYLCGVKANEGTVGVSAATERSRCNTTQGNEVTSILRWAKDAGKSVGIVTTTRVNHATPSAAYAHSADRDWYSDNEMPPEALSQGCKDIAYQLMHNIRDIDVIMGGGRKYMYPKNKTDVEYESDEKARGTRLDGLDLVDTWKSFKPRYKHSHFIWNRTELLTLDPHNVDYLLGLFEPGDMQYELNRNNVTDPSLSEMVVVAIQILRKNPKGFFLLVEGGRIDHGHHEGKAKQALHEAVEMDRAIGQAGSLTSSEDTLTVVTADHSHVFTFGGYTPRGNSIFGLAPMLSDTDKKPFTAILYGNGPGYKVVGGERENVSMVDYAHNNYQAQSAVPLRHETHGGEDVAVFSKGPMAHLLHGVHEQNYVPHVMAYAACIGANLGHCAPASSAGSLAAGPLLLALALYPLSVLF

[26] = biological target: Intestinal-type alkaline phosphatase (Homo sapiens, UniProt P09923); assay: inhibition of human intestinal alkaline phosphatase – biochemical, dose response (AID 488876); format: functional
CHO = CHO cell viability loss, potency – luminescence, cytotoxicity control for TLR9-MyD88 binding inhibitor project, dose response (AID 588339); format: functional, cell-based, hamster; details: Cricetulus griseus;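 further: CHO cells stably coexpressing TLR9 and MyD88 fusions from primary screen; compound exposure lasted 48 hours before viability readout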
Beta Lactamase = Beta Lactamase (Pseudomonas aeruginosa, UniProt Q932Y6); assay: BLA reporter interference, concentration series – BLA reporter cells, FRET fluorescence, artefact control for TLR9-MyD88 binding inhibitor project, dose response (AID 588341); format: cell-based;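 further: cell based assay in CHO-K1 cells stably expressing beta-lactamase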

DNA (cytosine-5)-methyltransferase 1, sequence (P26358 whole entry): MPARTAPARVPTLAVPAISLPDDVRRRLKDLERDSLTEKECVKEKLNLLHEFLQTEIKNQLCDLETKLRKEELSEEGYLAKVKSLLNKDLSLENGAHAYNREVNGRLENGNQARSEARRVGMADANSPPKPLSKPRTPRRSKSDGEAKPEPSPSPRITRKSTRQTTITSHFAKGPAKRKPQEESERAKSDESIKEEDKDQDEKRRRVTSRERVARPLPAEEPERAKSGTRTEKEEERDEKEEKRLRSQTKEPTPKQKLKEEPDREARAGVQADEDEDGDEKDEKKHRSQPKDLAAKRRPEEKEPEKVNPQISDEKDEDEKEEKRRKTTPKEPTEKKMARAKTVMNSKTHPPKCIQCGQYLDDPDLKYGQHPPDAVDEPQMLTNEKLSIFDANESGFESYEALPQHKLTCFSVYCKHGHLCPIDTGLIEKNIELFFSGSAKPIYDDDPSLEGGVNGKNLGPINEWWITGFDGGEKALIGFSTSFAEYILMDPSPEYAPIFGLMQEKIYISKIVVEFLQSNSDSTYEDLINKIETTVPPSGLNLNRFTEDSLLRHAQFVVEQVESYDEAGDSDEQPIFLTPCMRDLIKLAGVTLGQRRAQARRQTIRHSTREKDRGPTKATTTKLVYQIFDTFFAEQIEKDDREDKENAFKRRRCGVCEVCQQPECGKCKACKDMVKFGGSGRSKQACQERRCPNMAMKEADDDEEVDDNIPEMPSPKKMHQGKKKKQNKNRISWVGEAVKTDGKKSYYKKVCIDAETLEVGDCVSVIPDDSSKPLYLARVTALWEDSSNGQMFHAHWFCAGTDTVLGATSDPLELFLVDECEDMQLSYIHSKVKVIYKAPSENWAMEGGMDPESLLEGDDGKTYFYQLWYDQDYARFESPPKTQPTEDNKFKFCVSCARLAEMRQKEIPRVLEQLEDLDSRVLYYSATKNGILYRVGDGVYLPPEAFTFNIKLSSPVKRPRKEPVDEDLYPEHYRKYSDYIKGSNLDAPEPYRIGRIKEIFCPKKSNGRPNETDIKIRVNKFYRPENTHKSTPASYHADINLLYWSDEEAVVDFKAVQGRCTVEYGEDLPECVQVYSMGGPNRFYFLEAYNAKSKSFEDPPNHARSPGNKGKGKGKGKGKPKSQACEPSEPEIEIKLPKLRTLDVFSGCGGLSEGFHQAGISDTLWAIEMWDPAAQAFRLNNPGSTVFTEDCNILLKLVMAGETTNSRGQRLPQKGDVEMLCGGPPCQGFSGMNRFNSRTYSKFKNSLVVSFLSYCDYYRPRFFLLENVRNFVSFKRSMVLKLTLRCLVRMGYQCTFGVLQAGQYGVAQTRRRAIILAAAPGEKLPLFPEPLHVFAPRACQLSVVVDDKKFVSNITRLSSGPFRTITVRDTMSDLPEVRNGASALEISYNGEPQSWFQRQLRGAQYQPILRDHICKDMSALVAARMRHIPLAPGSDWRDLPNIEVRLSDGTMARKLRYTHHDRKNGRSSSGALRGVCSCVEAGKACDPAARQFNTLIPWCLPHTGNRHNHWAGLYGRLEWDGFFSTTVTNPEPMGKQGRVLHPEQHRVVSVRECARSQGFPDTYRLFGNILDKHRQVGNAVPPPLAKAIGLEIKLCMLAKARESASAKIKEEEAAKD
Genome polyprotein, sequence (P29990 2492-3391 limits assumed): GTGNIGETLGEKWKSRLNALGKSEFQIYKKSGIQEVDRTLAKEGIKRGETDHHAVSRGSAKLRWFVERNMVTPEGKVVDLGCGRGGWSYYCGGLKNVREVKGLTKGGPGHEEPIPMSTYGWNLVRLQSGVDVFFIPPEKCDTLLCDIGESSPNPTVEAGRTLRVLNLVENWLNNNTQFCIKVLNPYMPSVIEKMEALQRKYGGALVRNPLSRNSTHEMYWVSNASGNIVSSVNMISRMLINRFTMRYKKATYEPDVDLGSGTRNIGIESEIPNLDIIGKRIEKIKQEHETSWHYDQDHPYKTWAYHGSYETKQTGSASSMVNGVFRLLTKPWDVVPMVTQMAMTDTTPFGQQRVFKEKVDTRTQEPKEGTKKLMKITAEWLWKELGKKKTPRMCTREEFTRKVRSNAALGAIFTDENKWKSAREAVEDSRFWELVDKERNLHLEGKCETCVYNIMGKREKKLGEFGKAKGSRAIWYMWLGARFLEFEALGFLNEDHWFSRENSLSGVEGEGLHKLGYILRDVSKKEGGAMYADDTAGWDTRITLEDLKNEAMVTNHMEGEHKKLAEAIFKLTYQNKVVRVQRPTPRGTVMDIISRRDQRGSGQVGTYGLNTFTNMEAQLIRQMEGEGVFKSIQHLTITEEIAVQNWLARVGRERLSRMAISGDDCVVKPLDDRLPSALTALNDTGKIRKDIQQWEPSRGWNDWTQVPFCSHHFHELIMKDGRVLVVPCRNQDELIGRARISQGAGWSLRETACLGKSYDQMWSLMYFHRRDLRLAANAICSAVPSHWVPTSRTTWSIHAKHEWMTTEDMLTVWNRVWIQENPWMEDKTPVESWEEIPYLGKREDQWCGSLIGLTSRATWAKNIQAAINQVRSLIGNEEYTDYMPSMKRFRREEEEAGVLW
X-box-binding protein 1, sequence (P17861 whole entry): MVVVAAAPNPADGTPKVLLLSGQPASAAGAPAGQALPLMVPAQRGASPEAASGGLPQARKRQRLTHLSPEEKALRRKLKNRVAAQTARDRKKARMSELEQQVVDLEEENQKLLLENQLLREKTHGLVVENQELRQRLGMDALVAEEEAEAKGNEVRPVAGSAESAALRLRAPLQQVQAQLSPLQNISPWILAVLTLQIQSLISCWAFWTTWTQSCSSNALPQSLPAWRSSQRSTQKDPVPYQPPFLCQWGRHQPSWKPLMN
Cyclin-dependent kinase 1, sequence (P06493 whole entry): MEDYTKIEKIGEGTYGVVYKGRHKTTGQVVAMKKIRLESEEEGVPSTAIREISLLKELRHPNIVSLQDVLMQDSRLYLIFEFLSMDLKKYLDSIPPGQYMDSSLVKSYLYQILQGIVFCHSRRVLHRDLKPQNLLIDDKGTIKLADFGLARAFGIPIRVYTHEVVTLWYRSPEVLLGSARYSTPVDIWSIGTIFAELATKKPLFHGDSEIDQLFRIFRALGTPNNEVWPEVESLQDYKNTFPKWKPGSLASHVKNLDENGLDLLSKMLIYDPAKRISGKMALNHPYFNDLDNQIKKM
Serine/threonine-protein kinase pim-1, sequence (P11309 whole entry): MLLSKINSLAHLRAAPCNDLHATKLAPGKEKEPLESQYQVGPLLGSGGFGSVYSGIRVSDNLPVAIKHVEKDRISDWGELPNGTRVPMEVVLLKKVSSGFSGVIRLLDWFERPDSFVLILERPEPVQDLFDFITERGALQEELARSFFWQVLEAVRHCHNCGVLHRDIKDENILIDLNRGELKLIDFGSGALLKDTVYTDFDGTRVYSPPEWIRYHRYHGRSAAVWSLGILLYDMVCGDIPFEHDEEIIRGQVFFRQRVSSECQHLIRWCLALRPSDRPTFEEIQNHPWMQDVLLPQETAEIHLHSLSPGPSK
Serine/threonine-protein kinase D2, sequence (Q9BZL6 whole entry): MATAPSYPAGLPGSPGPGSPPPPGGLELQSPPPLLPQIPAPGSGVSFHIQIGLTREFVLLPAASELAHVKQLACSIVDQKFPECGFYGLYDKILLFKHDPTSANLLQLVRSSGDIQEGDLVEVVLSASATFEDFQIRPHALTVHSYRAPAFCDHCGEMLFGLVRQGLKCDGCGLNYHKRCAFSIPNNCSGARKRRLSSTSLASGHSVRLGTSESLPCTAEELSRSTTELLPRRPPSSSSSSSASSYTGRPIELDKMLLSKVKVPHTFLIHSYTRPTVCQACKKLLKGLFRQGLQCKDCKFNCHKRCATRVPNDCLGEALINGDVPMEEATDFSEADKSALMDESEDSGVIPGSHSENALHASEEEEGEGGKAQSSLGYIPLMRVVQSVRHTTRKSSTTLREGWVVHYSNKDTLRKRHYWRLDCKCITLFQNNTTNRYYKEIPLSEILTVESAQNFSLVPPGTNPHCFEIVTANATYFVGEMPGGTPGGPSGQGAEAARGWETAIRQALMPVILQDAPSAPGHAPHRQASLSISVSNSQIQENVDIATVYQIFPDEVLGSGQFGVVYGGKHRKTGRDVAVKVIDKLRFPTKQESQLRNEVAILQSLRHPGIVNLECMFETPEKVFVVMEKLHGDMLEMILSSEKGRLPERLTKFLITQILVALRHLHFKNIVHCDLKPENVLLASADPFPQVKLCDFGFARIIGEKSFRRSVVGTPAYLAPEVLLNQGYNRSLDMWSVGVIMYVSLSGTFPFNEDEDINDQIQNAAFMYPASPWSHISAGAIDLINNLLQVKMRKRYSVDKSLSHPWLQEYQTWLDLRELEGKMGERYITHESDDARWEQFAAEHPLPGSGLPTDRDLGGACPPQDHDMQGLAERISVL
26S proteasome non-ATPase regulatory subunit 14, sequence (O00487 whole entry): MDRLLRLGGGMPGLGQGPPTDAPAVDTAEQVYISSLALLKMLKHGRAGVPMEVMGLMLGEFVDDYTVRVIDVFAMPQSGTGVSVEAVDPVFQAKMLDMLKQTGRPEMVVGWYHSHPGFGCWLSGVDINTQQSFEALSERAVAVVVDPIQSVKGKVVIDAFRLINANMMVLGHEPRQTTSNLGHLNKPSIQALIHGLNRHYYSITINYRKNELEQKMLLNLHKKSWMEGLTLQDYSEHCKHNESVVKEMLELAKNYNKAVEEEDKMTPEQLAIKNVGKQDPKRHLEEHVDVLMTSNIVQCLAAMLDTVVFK
Casein kinase II subunit alpha, sequence (P68400 whole entry): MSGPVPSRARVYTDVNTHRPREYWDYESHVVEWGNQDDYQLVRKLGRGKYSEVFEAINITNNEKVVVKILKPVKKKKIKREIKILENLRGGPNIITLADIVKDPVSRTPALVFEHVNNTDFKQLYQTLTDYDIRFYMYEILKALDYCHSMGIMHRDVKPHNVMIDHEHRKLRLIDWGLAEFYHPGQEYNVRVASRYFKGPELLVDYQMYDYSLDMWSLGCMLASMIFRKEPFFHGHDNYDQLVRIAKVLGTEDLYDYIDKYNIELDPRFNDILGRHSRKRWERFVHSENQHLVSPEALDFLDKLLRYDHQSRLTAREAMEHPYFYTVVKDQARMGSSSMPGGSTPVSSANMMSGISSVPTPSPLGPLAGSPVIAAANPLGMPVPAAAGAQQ

C/C(=C/CCC(C)[C@H]1CC[C@@]2(C)C3=C(CC[C@]12C)[C@@]1(C)CCC(=O)C(C)(C)[C@@H]1CC3)C(=O)O (stereo not given in full)
IC50 (Cysteine protease ATG4B): 5.45 µM (active)
AC50 [1]: 2.12 µM (active)
IC50 (Phospholipase A2): 2.04 µM (active)
EC50 (Protein RecA): 5.88 µM (active)
IC50 (Genome polyprotein): 47.9 µM (active)
IC50 [2]: 5.93 µM (active)

O=C(Nc1ccc(CO)cc1)c1cnn2c(-c3ccccc3)ccnc12
Ki [3]: > 10 µM (inactive)
Ki [4]: > 10 µM (inactive)
Ki [5]: > 10 µM (inactive)
Ki [6]: > 10 µM (inactive)
Ki [7]: 0.794 µM (active)
Ki (LIM domain kinase 1): > 10 µM (inactive)
Ki [8]: > 10 µM (inactive)
Ki [9]: > 10 µM (inactive)
Ki [10]: 2.51 µM (active)
Ki [11]: > 10 µM (inactive)
Ki [12]: > 7.94 µM (inactive)
Ki [13]: > 10 µM (inactive)
Ki [14]: > 10 µM (inactive)
Ki [15]: 1.26 µM (active)

O=C(N/N=C/c1ccccn1)c1cc(-c2ccc3ccccc3c2)[nH]n1
IC50 [16]: 6.53 µM (active)
IC50 [17]: > 67 µM (not active)
Absolute IC50 (XBP1) (X-box-binding protein 1): 10 µM
IC50 [18]: 13 µM (active)
IC50 [19]: > 100 µM (inactive)
IC50 (Prothrombin): 28.7 µM (active)

Nc1ccc2[nH]c(=O)cnc2c1
Ki [20]: 7.94 µM (active)
Ki [21]: 6.31 µM (active)
Ki [22]: 10 µM (active)
Ki [23]: 12.6 µM (active)

COc1cc(/C=C/C(O)=C/C(=O)/C=C/c2ccc(O)cc2)ccc1O [DEMETHOXYCURCUMIN]
IC50 [24]: 8.38 µM (active)
IC50 [25]: > 100 µM (inactive)
IC50 [26]: > 100 µM (inactive)
IC50 (CHO): 39.3 µM (inactive)
IC50 (Beta Lactamase): 8.09 µM (active)
